The subject of one experiment is rats. The experiment in a line: Rat sleep parameters by EEG/EMG telemetry (WAKE, SWS, REM). It is filed as in vivo. How it is done: In the above experiment rats implanted with a two channel telemetry transmitter to record EEG and EMG simultaneously were dosed with either Merck 1 (nanosuspension 3 mg/kg; 5 ml/kg; p.o.) or vehicle (1.4% W/V hydroxypropylmethylcellulose 0.2% W/V sodium docusate; p.o.) at light on-set in a cross-over design. EEG and EMG recordings were collected for at least 12 hours. Data was converted with LoadDSI.s2s and BatchEEGpower2.s2s scripts (CED) and every 12 s epoch was automatically classified as either WAKE, SWS or REM (PS) sleep with Modulus analysis of sleep v7.xlt. Statistical analysis was done with Student's t-test for paired data. REM latency was defined as the first>1 min REM bout.
Similar data is shown for D-amino acid oxidase inhibitor 4H-furo[3,2-b]pyrrole-5-carboxylic acid (Merck 2) in FIG. 3 and D-serine in FIG. 4 at 100 mg/kg. In this experiment rats implanted with a two channel telemetry transmitter to record EEG and EMG simultaneously were dosed with either drug (30, 100, 300 mg/kg d-serine or 25 mg/kg Merck 2) or vehicle (water or 0.5% MC) intraperitoneally at light on-set in a cross-over design. EEG and EMG recordings were collected for at least 12 hours. Data was converted with LoadDSI.s2s and BatchEEGpower2.s2 s scripts (CED) and every 12 s epoch was automatically classified as either WAKE, SWS or REM (PS) sleep with Modulus analysis of sleep v5 REM incl entries.XLT. Preliminary statistical analysis was done with Student's t-test for paired data. Significance level p<0.05.
(§1) Rats implanted with a two channel telemetry transmitter to record EEG and EMG simultaneously were dosed acutely with either Merck 3 (5 mg/kg; i.p.) or vehicle (distilled water; i.p.) at light onset in a cross-over design. EEB and EMG recordings were collected for at least 12 hours. Data was converted with LoadDSI.s2s and BatchEEGpower2.s2s scripts (CED) and every 12 s epoch was automatically classified as either WAKE, SWS or REM (PS) sleep and Modulus analysis of sleep v7 REM incl entries and tot.xlt. Preliminary statistical analysis was done with Student's t-test for paired data. Significance level p<0.05.
as §1, with “3 (25” for “3 (5”, “design. EEG” for “design. EEB”, “sleep with” for “sleep and”, “sleep v6” for “sleep v7”

The conditions of experiment [1]: 30 mg/kg, cited from earlier work.
[2] abbreviates: 25 mg/kg i.p., first four hours.

As to `O=C(NCC1(CC2CC2)CCC(S(=O)(=O)CC2CC2)CC1)c1ccc(Cl)cc1Cl` (centres unmarked) [Merck 1, 2,4-dichloro-N-(4-cyclopropylmethane-sulfonyl-1-cyclopropylmethylcyclohexylmethyl)benzamide], the REM latency result in the experiment with rats (3 mg/kg p.o.) is listed as “significant increase”. Besides, in the experiment on rats (3 mg/kg p.o., significant), the “decrease in REM sleep (mean±SEM)” value is 54±7%, the “decrease in the number of entries into REM” value was 45±9% and the “decrease in the number of entries into SWS” value stood at 26±8%. In addition, in the experiment on rats (3 mg/kg p.o., trend, p=0.06), the “increase in time spent in WAKE” value is 93±43%.
On to `O=C(O)c1cc2sccc2[nH]1` [Merck 3, 4H-thieno[3,2-b]pyrrole-5-carboxylic acid], for which the “latency to REM sleep” value with rats (5 mg/kg i.p.) is “significantly increased”. Besides, the “bout duration of SWS” value with rats (5 mg/kg i.p., 7 to 12 h time period) is recorded as “significantly reduced”. Further, in the experiment on rats (5 mg/kg i.p., first four hours after dosing), the time spent awake entry is “significantly increased”. Also, in the experiment on rats (25 mg/kg i.p.), the “latency to REM” value was “unaltered” and the “latency to SWS” value was “unaltered”. Also, the “wakefulness compared to the control” value in the experiment on rats (25 mg/kg i.p., first 4 h) is on record as “significantly more awake”. Besides, in the experiment with rats (setting [2]), the “time spent in REM” value is on record as “decrease” and the “time spent in SWS” value was “decrease”.
In the case of `O=C(N[C@@H](c1ccccc1)[C@@H]1CCCCN1)c1cccc(C(F)(F)F)c1Cl` [SSR504734], the “sleep parameters 24 h after drug challenge” value in experiment [1] (24 h after drug challenge) was “returned to control levels”. In addition, in experiment [1] (effect only for the first two hours), the duration of wakefulness entry was “increased”. Moreover, in experiment [1], the “latency time to onset of the first episode of PS” value is “increased latency time” and the “paradoxical sleep (PS)” value was “long-lasting reduction”.

The record behind these values is US20110269782A1, “USE OF NMDA ACTIVITY ENHANCERS TO TREAT HYPERSOMNIA, REDUCED WAKEFULNESS OR REDUCED VIGILANCE” (priority 2008, published 2011).
